Converted amounts (≈) assume the structure as drawn.

One experiment has as its system Klebsiella aerogenes. Kind of experiment: In vitro antibacterial activity against Enterobacter aerogenes ATCC 13048. The experiment is classed as functional.
The subject of experiment [1] is Escherichia coli. Briefly: In vitro antibacterial activity against Escherichia coli Juhl. The experiment is classed as functional.
The subject of another experiment is Klebsiella pneumoniae. Kind of experiment: In vitro antibacterial activity against Klebsiella pneumoniae 8045. The format is functional.
The subject of experiment [2] is Pseudomonas aeruginosa. Briefly: In vitro antibacterial activity against Pseudomonas aeruginosa K799/WT. The format is functional.
For experiment [3], the system named is Staphylococcus epidermidis. Kind of experiment: In vitro antibacterial activity against Staphylococcus epidermis 3519. The experiment is classed as functional.
A further experiment deals with Streptococcus pyogenes. Kind of experiment: In vitro antibacterial activity against Streptococcus pyogenes 930. The format is functional.
The subject of experiment [4] is Staphylococcus aureus. Kind of experiment: In vitro antibacterial activity against Staphylococcus aureus CMX 686B. The experiment is classed as functional.
In experiment [5] the test system is Staphylococcus aureus. Kind of experiment: In vitro antibacterial activity against Staphylococcus aureus ATCC 6538P. The format is functional.
The next experiment relates to Enterococcus faecium. Briefly: In vitro antibacterial activity against Streptococcus faecium ATCC 8043. The format is functional.
The subject of another experiment is Acinetobacter. Briefly: In vitro antibacterial activity against Acinetobacter CMX 669. The experiment is classed as functional.
In experiment [6] the test system is Pseudomonas aeruginosa. Briefly: In vitro antibacterial activity against Pseudomonas aeruginosa 5007. The experiment is classed as functional.
Experiment [7] deals with Pseudomonas aeruginosa. Briefly: In vitro mouse protection test against Pseudomonas aeruginosa 5007 (100 X LD50) (subcutaneous administration; Range is between (1.1-3.8). The experiment is classed as functional. The conditions noted are these: sc.
Experiment [8] concerns Pseudomonas aeruginosa. Kind of experiment: […] against Pseudomonas aeruginosa 5007 (100 X LD50) (p.o. administration ); Range is between (6.8-26.2). The format is functional. The conditions noted are these: po.
For experiment [9], the system named is Escherichia coli. Briefly: animal or person. The conditions noted are these: in Mus musculus, sc.
Experiment [10] has as its system Escherichia coli. Kind of experiment: animal or person. Conditions: in Mus musculus, po.
For experiment [11], the system named is Staphylococcus aureus. Kind of experiment: animal or person. Conditions: in Mus musculus, po.
Description: In vitro mouse protection test against Staphylococcus aureus NCTC 10649 (100 X LD50) (p.o. administration );Range is between (9.9-24.1)
The test system of experiment [12] is Staphylococcus aureus. Kind of experiment: animal or person. The conditions noted are these: in Mus musculus, sc.
Description: In vitro mouse protection test against Staphylococcus aureus NCTC 10649 (100 X LD50) (s.c. administration );Range is between (1.0-2.5)
The test system of experiment [13] is Escherichia coli. Kind of experiment: Compound was evaluated in vivo for antibacterial activity against Escherichia coli Juhl (100 X LD50) (p.o. administration); Range is between (2.8-6.5). Conditions: po. The format is functional.
The subject of experiment [14] is Escherichia coli. Kind of experiment: Compound was evaluated in vivo for antibacterial activity against Escherichia coli Juhl (100 X LD50) (s.c. administration); Range is between (0.3-1.3). The format is functional. The conditions noted are these: sc.
For experiment [15], the system named is Escherichia coli. Briefly: Compound was evaluated in vivo for antibacterial activity against Escherichia coli Juhl (100 X LD50) (p.o. administration); Range is between (3.8-11.2). The format is functional.
Experiment [16] deals with Pseudomonas aeruginosa. Briefly: Compound was evaluated in vivo for antibacterial activity against Pseudomonas aeruginosa 5007 (100 X LD50) (s.c. administration); Range is between (1.0-2.5). The format is functional. The conditions noted are these: sc.
Experiment [17] deals with Pseudomonas aeruginosa. Briefly: Compound was evaluated in vivo for antibacterial activity against Pseudomonas aeruginosa 5007 (100 X LD50);. The experiment is classed as functional.
In experiment [18] the test system is Staphylococcus aureus. Kind of experiment: Compound was evaluated in vivo for antibacterial activity against Staphylococcus aureus NCTC 10649 (100 X LD50) (s.c. administration); Range is between (1.0-2.5). The format is functional. The conditions noted are these: sc.
The test system of experiment [19] is Pseudomonas aeruginosa. Kind of experiment: Compound was evaluated in vivo for antibacterial activity against Pseudomonas aeruginosa 5007 (100 X LD50) (p.o. administration); Range is between (13.4-34.4). The format is functional. The conditions noted are these: po.

What is called MIC is the least concentration at which growth counts as inhibited. Consider `NC1CCN(c2c(F)cc3c(=O)c(C(=O)O)cn(-c4ccc(F)cc4)c3c2F)C1` (stereo not drawn), for which the MIC with Klebsiella aerogenes is 0.2 µg/mL (≈ 0.496 µM); in the experiment on Escherichia coli [1], 0.2 µg/mL (≈ 0.496 µM); in the experiment with Klebsiella pneumoniae it was 0.05 µg/mL (≈ 0.124 µM); against Pseudomonas aeruginosa [2], 1.56 µg/mL (≈ 3.87 µM); in experiment [3], 0.39 µg/mL (≈ 0.967 µM); in the experiment with Streptococcus pyogenes it was 1.56 µg/mL (≈ 3.87 µM). Moreover, the MIC with Staphylococcus aureus [4] amounted to 0.2 µg/mL (≈ 0.496 µM); against Staphylococcus aureus [5], 0.2 µg/mL (≈ 0.496 µM); against Enterococcus faecium, 3.1 µg/mL (≈ 7.69 µM); against Acinetobacter it was 0.78 µg/mL (≈ 1.93 µM); with Pseudomonas aeruginosa [6], 3.1 µg/mL (≈ 7.69 µM).

In the case of `NC1CCN(c2cc3c(cc2F)c(=O)c(C(=O)O)cn3-c2ccc(F)cc2)C1` (stereo not drawn), the MIC is 0.05 µg/mL (≈ 0.13 µM) in the experiment with Klebsiella aerogenes; 0.02 µg/mL (≈ 0.0519 µM) against Escherichia coli [1]; 0.02 µg/mL (≈ 0.0519 µM) against Klebsiella pneumoniae; 0.2 µg/mL (≈ 0.519 µM) in the experiment with Pseudomonas aeruginosa [2]; 0.05 µg/mL (≈ 0.13 µM) in experiment [3]; 0.1 µg/mL (≈ 0.259 µM) against Streptococcus pyogenes. Moreover, the minimum inhibitory concentration (MIC) in the experiment with Staphylococcus aureus [4] was 0.05 µg/mL (≈ 0.13 µM); against Staphylococcus aureus [5], 0.05 µg/mL (≈ 0.13 µM); against Enterococcus faecium, 0.78 µg/mL (≈ 2.02 µM); in the experiment with Acinetobacter, 0.2 µg/mL (≈ 0.519 µM); against Pseudomonas aeruginosa [6], 0.2 µg/mL (≈ 0.519 µM).

In general, ED50 refers to the dose at which the effect has come halfway, by size or by number of responders. Consider `O=C(O)c1cn(C2CC2)c2cc(N3CCNCC3)c(F)cc2c1=O` [CIPROFLOXACIN], for which the MIC against Klebsiella aerogenes is 0.05 µg/mL (≈ 0.151 µM); in the experiment with Klebsiella pneumoniae it was 0.02 µg/mL (≈ 0.0604 µM); against Pseudomonas aeruginosa [2] it was 0.1 µg/mL (≈ 0.302 µM); in [3], 0.39 µg/mL (≈ 1.18 µM); in the experiment on Streptococcus pyogenes, 0.39 µg/mL (≈ 1.18 µM); in the experiment with Staphylococcus aureus [4], 0.39 µg/mL (≈ 1.18 µM). In addition, the MIC with Staphylococcus aureus [5] amounted to 0.2 µg/mL (≈ 0.604 µM); with Enterococcus faecium, 0.2 µg/mL (≈ 0.604 µM); against Acinetobacter, 1.56 µg/mL (≈ 4.71 µM); against Pseudomonas aeruginosa [6] it was 0.1 µg/mL (≈ 0.302 µM). For the same compound, the ED50 with Pseudomonas aeruginosa [7] is 2.1 mg/kg; in the experiment with Pseudomonas aeruginosa [8], 13.3 mg/kg; with Escherichia coli [9], 0.2 mg/kg; with Escherichia coli [10], 1.9 mg/kg; in the experiment with Staphylococcus aureus [11], 15.5 mg/kg; with Staphylococcus aureus [12], 1.6 mg/kg.

`CN1CCN(c2cc3c(cc2F)c(=O)c(C(=O)O)cn3-c2ccc(F)cc2)CC1` [DIFLOXACIN]: the MIC in the experiment with Klebsiella aerogenes was 0.78 µg/mL (≈ 1.95 µM); against Escherichia coli [1], 0.2 µg/mL (≈ 0.501 µM); with Klebsiella pneumoniae it was 0.1 µg/mL (≈ 0.25 µM); with Pseudomonas aeruginosa [2], 1.56 µg/mL (≈ 3.91 µM); in experiment [3] it was 0.39 µg/mL (≈ 0.976 µM); with Streptococcus pyogenes, 1.56 µg/mL (≈ 3.91 µM). Besides, the MIC stood at 0.2 µg/mL (≈ 0.501 µM) with Staphylococcus aureus [4]; 0.2 µg/mL (≈ 0.501 µM) against Staphylococcus aureus [5]; 1.56 µg/mL (≈ 3.91 µM) in the experiment on Enterococcus faecium; 0.78 µg/mL (≈ 1.95 µM) with Acinetobacter; 0.78 µg/mL (≈ 1.95 µM) against Pseudomonas aeruginosa [6].

Regarding `CCn1cc(C(=O)O)c(=O)c2cc(F)c(N3CCNCC3)cc21` [NORFLOXACIN], the minimal inhibitory concentration (MIC) against Klebsiella aerogenes was 0.2 µg/mL (≈ 0.626 µM); in the experiment on Escherichia coli [1], 0.1 µg/mL (≈ 0.313 µM); with Klebsiella pneumoniae, 0.1 µg/mL (≈ 0.313 µM); in the experiment with Pseudomonas aeruginosa [2], 0.39 µg/mL (≈ 1.22 µM); in experiment [3] it was 1.56 µg/mL (≈ 4.89 µM); against Streptococcus pyogenes, 3.1 µg/mL (≈ 9.71 µM). Further, the minimum inhibitory concentration (MIC) in the experiment on Staphylococcus aureus [4] is 0.78 µg/mL (≈ 2.44 µM); against Staphylococcus aureus [5], 0.78 µg/mL (≈ 2.44 µM); in the experiment on Enterococcus faecium it was 0.78 µg/mL (≈ 2.44 µM); with Acinetobacter, 6.2 µg/mL (≈ 19.4 µM); in the experiment with Pseudomonas aeruginosa [6] it was 0.39 µg/mL (≈ 1.22 µM).

As for `Cl.O=C(O)c1cn(-c2ccc(F)cc2)c2cc(N3CCNCC3)c(F)cc2c1=O` [SARAFLOXACIN HYDROCHLORIDE], the ED50 was found to be 4.3 mg/kg in the experiment on Escherichia coli [13]; 0.6 mg/kg in the experiment on Escherichia coli [14]; 1.6 mg/kg in the experiment on Pseudomonas aeruginosa [16]; 1.6 mg/kg with Staphylococcus aureus [18]; 21.4 mg/kg in the experiment on Pseudomonas aeruginosa [19]. For the same compound, the MIC amounted to 0.2 µg/mL in the experiment with Klebsiella aerogenes; 0.05 µg/mL in the experiment with Escherichia coli [1]; 0.02 µg/mL against Klebsiella pneumoniae; 0.39 µg/mL with Pseudomonas aeruginosa [2]; 0.39 µg/mL in the experiment with Pseudomonas aeruginosa [17]; 0.39 µg/mL in experiment [3]. Besides, the minimal inhibitory concentration (MIC) is 0.78 µg/mL against Streptococcus pyogenes; 0.2 µg/mL in the experiment with Staphylococcus aureus [4]; 0.2 µg/mL in the experiment on Staphylococcus aureus [5]; 1.56 µg/mL against Enterococcus faecium; 0.2 µg/mL with Acinetobacter; 0.39 µg/mL against Pseudomonas aeruginosa [6]. The compound also returned an ED50 mg/kg with Escherichia coli [15] of 6.5.
